Experimental data reported in paper PMC4004102 (Molecular cell, 2014).

Molecular target: AgrC-I (Staphylococcus aureus, UniProt Q309Y8)
Test: reverse autokinase kinetics, Michaelis-Menten
Format: biochemical
Conditions: reverse reaction from pre-phosphorylated AgrC-I discs; without AIP

SMILES: Nc1ncnc2c1ncn2[C@@H]1O[C@H](COP(=O)(O)OP(=O)(O)O)[C@@H](O)[C@H]1O [ADP]
- Km: the Km for ADP was lower while the kmax was higher than the forward reaction
